Values after ≈ are worked out from the molar mass of the structure shown. Active and inactive are the calls of the source. The calls are words filed in the database; no cut-off is given here.
Key:
Pseudomonas putida [1] = assay: Antibacterial activity against Pseudomonas putida after 18 to 24 hrs by microbroth dilution method; assay type: functional; conditions: for MIC: Pseudomonas putida
Escherichia coli [2] = assay: Antibacterial activity against Escherichia coli after 18 to 24 hrs by microbroth dilution method; assay type: functional; conditions: for MIC: Escherichia coli
[3] = Cytotoxicity against human BxPC3 cells after 48 hrs by MTT assay; assay type: functional, cell-based; conditions: BXPC-3, 48 h
PC-3 = assay: Induction of apoptosis in human PC3 cells assessed as increase in cleaved PARP1 level after 48 hrs by immunoblot analysis; assay type: functional, cell-based
MDA-MB-231 = assay: Cytotoxicity against human MDA-MB-231 cells after 48 hrs by MTT assay; assay type: functional, cell-based; conditions: MDA-MB-231, 48 h
Klebsiella pneumoniae = assay: Antibacterial activity against Klebsiella pneumoniae after 18 to 24 hrs by microbroth dilution method; assay type: functional; conditions: for MIC: Klebsiella pneumoniae
[4] = Cytotoxicity against human HEK293T cells after 48 hrs by MTT assay; assay type: cell-based; conditions: HEK-293T
HeLa = assay: Cytotoxicity against human HeLa cells after 48 hrs by MTT assay; assay type: functional, cell-based
[5] = Cytotoxicity against human C4-2 cells after 48 hrs by MTT assay; assay type: functional, cell-based; conditions: LNCaP C4-2, 48 h
[6] = Cytotoxicity against human PC3 cells after 48 hrs by MTT assay; assay type: functional, cell-based; conditions: PC-3, 48 h
Pseudomonas putida [7] = assay: Bactericidal activity against Pseudomonas putida assessed as maximum bactericidal reduction at 3 times MIC after 3 hrs by time-kill analysis; assay type: functional, organism-based
Escherichia coli [8] = assay: Bactericidal activity against Escherichia coli assessed as maximum bactericidal reduction at 3 times MIC after 3 hrs by time-kill analysis; assay type: functional, organism-based
Staphylococcus aureus [9] = assay: Antibacterial activity against Staphylococcus aureus after 18 to 24 hrs by microbroth dilution method; assay type: functional; conditions: for MIC: Staphylococcus aureus
Bacillus subtilis [10] = assay: Bactericidal activity against Bacillus subtilis at 3 times MIC after 2 hrs by time-kill analysis; assay type: functional
Escherichia coli [11] = assay: Bactericidal activity against Escherichia coli at 3 times MIC after 2 hrs by time-kill analysis; assay type: functional
[12] = Stability of compound at pH 4.5 up to 48 hrs by HPLC analysis; assay type: physicochemical; conditions: buffer, pH 4.5, 48 h
Bacillus subtilis [13] = assay: Antibacterial activity against Bacillus subtilis after 18 to 24 hrs by microbroth dilution method; assay type: functional; conditions: for MIC: Bacillus subtilis
Staphylococcus aureus [14] = assay: Bactericidal activity against Staphylococcus aureus at 3 times MIC after 2 hrs by time-kill analysis; assay type: functional
Pseudomonas putida [15] = assay: Bactericidal activity against Pseudomonas putida at 3 times MIC after 2 hrs by time-kill analysis; assay type: functional
[16] = Stability of compound at pH 7.4 up to 48 hrs by HPLC analysis; assay type: physicochemical; conditions: buffer, pH 7.4, 48 h
[17] = target: Receptor tyrosine-protein kinase erbB-2 (Homo sapiens, UniProt P04626); assay: Inhibition of c-erbB2 (unknown origin)
[18] = target: Cyclin-dependent kinase 4 (Homo sapiens, UniProt P11802); assay: Inhibition of CDK4 (unknown origin)
Cyclin-dependent kinase 4, sequence (P11802 whole entry): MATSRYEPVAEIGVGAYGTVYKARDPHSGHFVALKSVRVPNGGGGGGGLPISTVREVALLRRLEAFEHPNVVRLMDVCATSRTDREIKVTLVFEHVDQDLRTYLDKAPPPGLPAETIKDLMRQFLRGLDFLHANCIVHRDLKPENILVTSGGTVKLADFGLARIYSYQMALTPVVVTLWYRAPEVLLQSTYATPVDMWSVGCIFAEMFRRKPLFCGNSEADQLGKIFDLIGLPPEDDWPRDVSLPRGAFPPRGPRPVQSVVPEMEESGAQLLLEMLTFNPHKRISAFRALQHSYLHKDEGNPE

Receptor tyrosine-protein kinase erbB-2, sequence (P04626 whole entry): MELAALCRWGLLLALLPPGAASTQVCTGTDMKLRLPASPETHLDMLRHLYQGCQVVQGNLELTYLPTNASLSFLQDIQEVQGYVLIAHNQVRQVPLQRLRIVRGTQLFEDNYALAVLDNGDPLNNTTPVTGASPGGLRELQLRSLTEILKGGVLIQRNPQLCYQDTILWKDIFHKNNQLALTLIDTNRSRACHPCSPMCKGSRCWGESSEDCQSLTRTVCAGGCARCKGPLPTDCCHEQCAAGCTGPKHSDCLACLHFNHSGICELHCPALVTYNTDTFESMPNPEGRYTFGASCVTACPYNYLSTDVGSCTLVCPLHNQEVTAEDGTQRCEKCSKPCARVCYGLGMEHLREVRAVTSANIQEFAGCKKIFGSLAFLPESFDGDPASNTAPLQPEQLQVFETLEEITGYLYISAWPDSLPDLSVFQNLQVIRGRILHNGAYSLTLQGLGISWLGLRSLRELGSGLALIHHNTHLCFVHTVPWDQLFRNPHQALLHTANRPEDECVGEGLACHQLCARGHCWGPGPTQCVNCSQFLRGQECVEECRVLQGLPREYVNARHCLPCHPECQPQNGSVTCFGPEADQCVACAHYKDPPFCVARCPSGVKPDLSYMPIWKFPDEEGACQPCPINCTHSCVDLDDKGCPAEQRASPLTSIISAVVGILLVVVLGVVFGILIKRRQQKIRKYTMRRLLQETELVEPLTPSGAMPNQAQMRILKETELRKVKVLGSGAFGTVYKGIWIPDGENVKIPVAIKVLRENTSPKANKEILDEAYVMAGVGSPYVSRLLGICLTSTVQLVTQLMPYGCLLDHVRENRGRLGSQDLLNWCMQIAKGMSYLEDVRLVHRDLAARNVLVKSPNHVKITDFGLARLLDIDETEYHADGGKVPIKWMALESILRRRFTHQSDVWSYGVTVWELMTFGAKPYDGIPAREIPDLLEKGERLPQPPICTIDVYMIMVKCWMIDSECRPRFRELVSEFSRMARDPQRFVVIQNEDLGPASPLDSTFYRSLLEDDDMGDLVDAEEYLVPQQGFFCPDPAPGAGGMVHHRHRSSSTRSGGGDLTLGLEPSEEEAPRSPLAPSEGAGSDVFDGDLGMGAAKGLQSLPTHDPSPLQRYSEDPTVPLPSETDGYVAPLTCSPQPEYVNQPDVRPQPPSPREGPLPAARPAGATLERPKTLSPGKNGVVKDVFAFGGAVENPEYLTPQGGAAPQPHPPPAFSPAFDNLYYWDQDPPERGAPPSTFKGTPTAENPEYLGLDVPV

Q: What does the source list for `O=C(NCCc1c[nH]c2ccccc12)C(=O)c1c[nH]c2cc(F)ccc12`?
A: inhibition zone (IZ) (Pseudomonas putida [1]): 14 mm; MIC (Pseudomonas putida [1]): > 100 µg/mL; inhibition zone (IZ) (Escherichia coli [2]): 15 mm; MIC (Escherichia coli [2]): 100 µg/mL (≈ 286 µM); IC50 [3]: 29.9 µM; Activity (PC-3): Active; IC50 (MDA-MB-231): 21.1 µM; inhibition zone (IZ) (Klebsiella pneumoniae): 14 mm; MIC (Klebsiella pneumoniae): > 50 µg/mL; IC50 [4]: 69.8 µM; IC50 (HeLa): 22.3 µM; IC50 [5]: 46 µM; IC50 [6]: 24.1 µM

Q: For `O=C(NCCc1c[nH]c2ccccc12)C(=O)c1cn(Cc2ccc(Cl)cc2)c2ccccc12`, which “inhibition zone (IZ)” value (Pseudomonas putida [1]) is on record?
A: Its value is 18 mm.

Q: And the MIC (Pseudomonas putida [1])?
A: Its MIC is 12.5 µg/mL (≈ 27.4 µM).

Q: And the Activity (Pseudomonas putida [7])?
A: Its Activity is “Active”.

Q: What about the “inhibition zone (IZ)” value (Escherichia coli [2]) of the same compound?
A: The value was 18 mm.

Q: And the MIC (Escherichia coli [2])?
A: Its MIC is 12.5 µg/mL (≈ 27.4 µM).

Q: What about the IC50 [3] of the same compound?
A: The IC50 was over 100 µM.

Q: And the IC50 (MDA-MB-231)?
A: The IC50 was over 100 µM.

Q: What about the Activity (Escherichia coli [8]) of the same compound?
A: Its Activity is “Active”.

Q: And the “inhibition zone (IZ)” value (Staphylococcus aureus [9])?
A: The value was 17 mm.

Q: What about the MIC (Staphylococcus aureus [9]) of the same compound?
A: Its MIC is over 25 µg/mL.

Q: And the Activity (Bacillus subtilis [10])?
A: Its Activity is over 80%.

Q: What about the “inhibition zone (IZ)” value (Klebsiella pneumoniae) of the same compound?
A: Its value is 18 mm.

Q: And the MIC (Klebsiella pneumoniae)?
A: The MIC was over 12.5 µg/mL.

Q: And the IC50 [4]?
A: Its IC50 is over 100 µM.

Q: And the IC50 (HeLa)?
A: The IC50 was over 100 µM.

Q: What about the Activity (Escherichia coli [11]) of the same compound?
A: Its Activity is 80%.

Q: And the Stability [12]?
A: Its Stability is “Stable”.

Q: What about the “inhibition zone (IZ)” value (Bacillus subtilis [13]) of the same compound?
A: The value was 17 mm.

Q: And the MIC (Bacillus subtilis [13])?
A: Its MIC is over 25 µg/mL.

Q: And the IC50 [5]?
A: Its IC50 is over 100 µM.

Q: What about the IC50 [6] of the same compound?
A: Its IC50 is over 100 µM.

Q: And the Activity (Staphylococcus aureus [14])?
A: Its Activity is over 65%.

Q: And the Activity (Pseudomonas putida [15])?
A: Its Activity is 80%.

Q: And the Stability [16]?
A: Its Stability is “Stable”.

Q: Which results are given for `COc1cccc2c1C(=O)c1c(O)c3c(c(O)c1C2=O)C[C@@](O)(C(=O)CO)C[C@@H]3O[C@H]1C[C@H](N)[C@H](O)[C@H](C)O1` [DOXORUBICIN]?
A: IC50 [3]: 13 µM; IC50 [4]: 3.1 µM; IC50 [5]: 1.85 µM; IC50 [6]: 9.5 µM

Q: With `O=C(NCCc1c[nH]c2ccccc12)C(=O)c1c[nH]c2ccccc12` as the compound, how does the “inhibition zone (IZ)” value (Pseudomonas putida [1]) read?
A: Its value is 14 mm.

Q: What about the MIC (Pseudomonas putida [1]) of the same compound?
A: Its MIC is 50 µg/mL (≈ 151 µM).

Q: And the “inhibition zone (IZ)” value (Escherichia coli [2])?
A: Its value is 15 mm.

Q: And the MIC (Escherichia coli [2])?
A: Its MIC is 50 µg/mL (≈ 151 µM).

Q: And the IC50 [3]?
A: The IC50 was 64 µM.

Q: What about the Activity (PC-3) of the same compound?
A: The Activity was “Active”.

Q: And the IC50 (MDA-MB-231)?
A: The IC50 was 48.7 µM.

Q: And the “inhibition zone (IZ)” value (Staphylococcus aureus [9])?
A: Its value is 15 mm.

Q: What about the MIC (Staphylococcus aureus [9]) of the same compound?
A: The MIC was 50 µg/mL (≈ 151 µM).

Q: What about the “inhibition zone (IZ)” value (Klebsiella pneumoniae) of the same compound?
A: The value was 14 mm.

Q: What about the MIC (Klebsiella pneumoniae) of the same compound?
A: Its MIC is 100 µg/mL (≈ 302 µM).

Q: What about the IC50 [4] of the same compound?
A: Its IC50 is 97.7 µM.

Q: What about the IC50 (HeLa) of the same compound?
A: The IC50 was 48.9 µM.

Q: What about the “inhibition zone (IZ)” value (Bacillus subtilis [13]) of the same compound?
A: Its value is 15 mm.

Q: And the MIC (Bacillus subtilis [13])?
A: The MIC was 50 µg/mL (≈ 151 µM).

Q: What about the IC50 [5] of the same compound?
A: The IC50 was 71.5 µM.

Q: And the IC50 [6]?
A: The IC50 was 38.5 µM.

Q: Which “inhibition zone (IZ)” value (Pseudomonas putida [1]) does the source give for `COc1ccc2[nH]cc(C(=O)C(=O)CCCc3c[nH]c4ccccc34)c2c1` here?
A: Its value is 15 mm.

Q: And the MIC (Pseudomonas putida [1])?
A: Its MIC is 100 µg/mL (≈ 277 µM).

Q: And the “inhibition zone (IZ)” value (Escherichia coli [2])?
A: Its value is 15 mm.

Q: What about the MIC (Escherichia coli [2]) of the same compound?
A: The MIC was 100 µg/mL (≈ 277 µM).

Q: And the IC50 [3]?
A: Its IC50 is over 100 µM.

Q: And the IC50 (MDA-MB-231)?
A: Its IC50 is over 100 µM.

Q: What about the “inhibition zone (IZ)” value (Klebsiella pneumoniae) of the same compound?
A: The value was 15 mm.

Q: What about the MIC (Klebsiella pneumoniae) of the same compound?
A: Its MIC is 50 µg/mL (≈ 139 µM).

Q: And the IC50 [4]?
A: The IC50 was over 100 µM.

Q: And the IC50 (HeLa)?
A: The IC50 was over 100 µM.

Q: And the IC50 [5]?
A: The IC50 was over 100 µM.

Q: What about the IC50 [6] of the same compound?
A: Its IC50 is over 100 µM.

Q: For `O=C1N=C(C(=O)c2c[nH]c3ccccc23)N/C1=C\c1c[nH]c2cc(O)ccc12`, which IC50 [17] is on record?
A: The IC50 was 20 µM.

Q: And the IC50 [18]?
A: The IC50 was 33.8 µM.

Q: For `O=C(NCCc1c[nH]c2ccccc12)C(=O)c1cn(Cc2ccc(Cl)cc2)c2ccc(Br)cc12`, which “inhibition zone (IZ)” value (Pseudomonas putida [1]) is on record?
A: The value was 14 mm.

Q: What about the MIC (Pseudomonas putida [1]) of the same compound?
A: The MIC was over 100 µg/mL.

Q: And the “inhibition zone (IZ)” value (Escherichia coli [2])?
A: Its value is 15 mm.

Q: What about the MIC (Escherichia coli [2]) of the same compound?
A: The MIC was 100 µg/mL (≈ 187 µM).

Q: And the IC50 [3]?
A: Its IC50 is over 100 µM.

Q: And the IC50 (MDA-MB-231)?
A: Its IC50 is over 100 µM.

Q: What about the “inhibition zone (IZ)” value (Staphylococcus aureus [9]) of the same compound?
A: Its value is 13 mm.

Q: And the MIC (Staphylococcus aureus [9])?
A: Its MIC is 100 µg/mL (≈ 187 µM).

Q: What about the “inhibition zone (IZ)” value (Klebsiella pneumoniae) of the same compound?
A: The value was 14 mm.

Q: And the MIC (Klebsiella pneumoniae)?
A: The MIC was over 50 µg/mL.

Q: What about the IC50 [4] of the same compound?
A: Its IC50 is over 100 µM.

Q: And the IC50 (HeLa)?
A: The IC50 was over 100 µM.

Q: What about the “inhibition zone (IZ)” value (Bacillus subtilis [13]) of the same compound?
A: The value was 14 mm.

Q: And the MIC (Bacillus subtilis [13])?
A: The MIC was 100 µg/mL (≈ 187 µM).

Q: And the IC50 [5]?
A: Its IC50 is over 100 µM.

Q: And the IC50 [6]?
A: The IC50 was over 100 µM.

Q: What does the source list for `O=C(NCCc1c[nH]c2ccccc12)C(=O)c1c[nH]c2ccc(Br)cc12`?
A: inhibition zone (IZ) (Pseudomonas putida [1]): 14 mm; MIC (Pseudomonas putida [1]): 100 µg/mL (≈ 244 µM); inhibition zone (IZ) (Escherichia coli [2]): 16 mm; MIC (Escherichia coli [2]): 50 µg/mL (≈ 122 µM); IC50 [3]: > 100 µM; IC50 (MDA-MB-231): > 100 µM; inhibition zone (IZ) (Staphylococcus aureus [9]): 15 mm; MIC (Staphylococcus aureus [9]): > 100 µg/mL; inhibition zone (IZ) (Klebsiella pneumoniae): 15 mm; MIC (Klebsiella pneumoniae): 100 µg/mL (≈ 244 µM); IC50 [4]: > 100 µM; IC50 (HeLa): > 100 µM; inhibition zone (IZ) (Bacillus subtilis [13]): 14 mm; MIC (Bacillus subtilis [13]): 100 µg/mL (≈ 244 µM); IC50 [5]: > 100 µM; IC50 [6]: > 100 µM

Q: For `COc1ccc2c(C(=O)C(=O)NCCc3c[nH]c4ccccc34)cn(Cc3ccc(Cl)cc3)c2c1`, which “inhibition zone (IZ)” value (Pseudomonas putida [1]) is on record?
A: The value was 16 mm.

Q: And the MIC (Pseudomonas putida [1])?
A: The MIC was 50 µg/mL (≈ 103 µM).

Q: What about the “inhibition zone (IZ)” value (Escherichia coli [2]) of the same compound?
A: The value was 15 mm.

Q: What about the MIC (Escherichia coli [2]) of the same compound?
A: The MIC was 50 µg/mL (≈ 103 µM).

Q: What about the IC50 [3] of the same compound?
A: The IC50 was over 100 µM.

Q: And the IC50 (MDA-MB-231)?
A: The IC50 was over 100 µM.

Q: And the “inhibition zone (IZ)” value (Klebsiella pneumoniae)?
A: Its value is 15 mm.

Q: What about the MIC (Klebsiella pneumoniae) of the same compound?
A: Its MIC is over 50 µg/mL.

Q: And the IC50 [4]?
A: Its IC50 is over 100 µM.

Q: What about the IC50 (HeLa) of the same compound?
A: Its IC50 is over 100 µM.

Q: And the IC50 [5]?
A: The IC50 was over 100 µM.

Q: What about the IC50 [6] of the same compound?
A: Its IC50 is over 100 µM.

Reference: ChEMBL document CHEMBL3808279, “Sequential one-pot synthesis of bis(indolyl)glyoxylamides: Evaluation of antibacterial and anticancer activities” (Bioorg Med Chem Lett, 2016)
